Values quoted from earlier work as cited in patent publication US7442834B2, “Process suitable for industrial scale production of gabapentin” (priority 2006, dated 2008).

Legend:
[1] = in vivo
[2] = from U.S. Pat. No. 6,518,456

O=C1CC2(CCCCC2)CN1 [IV, 3,3-pentamethylenebutyrolactam]
LD50 (cytotoxicity) [1]: 300 mg/kg

NCC1(CC(=O)O)CCCCC1 [gabapentin (I), 1-(aminomethyl)-1-cyclohexaneacetic acid]
LD50 (cytotoxicity) [1]: > 8000 mg/kg | isoelectric point (pH) [2]: 7.1-7.2
